The values that follow come from PMC7996082, “The translocator protein ligands as mitochondrial functional modulators for the potential anti-Alzheimer agents” (Journal of Enzyme Inhibition and Medicinal Chemistry, 2021).

Molecules are shown by their SMILES. Where two headings read alike, the source gives them in different places.

The nature of data set [1]: MTT assay: HT22 cell viability with compound alone. Type of data set: cell-based, mouse. The following applies: mouse, HT22 cells; HT22 cell viability after 24 h of treatment with 5 μM compound, no Aβ. In outline:
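Viability is by MTT read-out at 560 nm after 2 h MTT and 2 h acidified Triton X-100/isopropanol solubilisation at 37 °C. Before that, cells plated 24 h earlier (5,000/well) received compound (5 µM solution) for 24 h at 37 °C. Values are referenced to 5 µM DMSO vehicle set as […].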
On the technique in general: Tetrazolium assays rely on reduction of a dye to a coloured formazan, in cell work by metabolically active cells.

The target in another data set is T1, CYP3A4 (Homo sapiens, UniProt P08684).
T1 construct: purchased Invitrogen, Madison, WI, USA
T1 sequence (P08684 2-503 limits assumed): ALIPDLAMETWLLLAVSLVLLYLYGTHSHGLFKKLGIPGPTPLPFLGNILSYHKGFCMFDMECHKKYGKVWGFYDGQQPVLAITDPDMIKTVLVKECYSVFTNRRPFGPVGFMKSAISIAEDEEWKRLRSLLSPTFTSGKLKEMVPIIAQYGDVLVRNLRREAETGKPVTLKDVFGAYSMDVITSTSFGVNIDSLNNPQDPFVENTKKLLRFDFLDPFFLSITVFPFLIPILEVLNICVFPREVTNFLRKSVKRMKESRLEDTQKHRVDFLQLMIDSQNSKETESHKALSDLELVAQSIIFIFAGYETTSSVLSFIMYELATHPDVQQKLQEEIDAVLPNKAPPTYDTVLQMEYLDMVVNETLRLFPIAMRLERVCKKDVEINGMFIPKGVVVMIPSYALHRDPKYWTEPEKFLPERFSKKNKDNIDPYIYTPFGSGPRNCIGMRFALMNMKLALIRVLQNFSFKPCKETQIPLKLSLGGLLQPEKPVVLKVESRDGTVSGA
Put plainly: CYP inhibition assay (Vivid CYP450 screening kit). The conditions noted are these: 10 μM compound. Type of data set: in vitro ADME. The procedure, abridged: (§1)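 Recombinant human CYP isozymes in baculosomes with rabbit NADPH-P450 reductase and a G6P/G6PDH regeneration system (100 mM potassium phosphate, pH 8.0) were preincubated with compound 5 min at 37 °C. Reactions were started with Vivid fluorogenic substrates and 0.1 mM NADP+, and % remaining activity was read by fluorescence after 20 min.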

In the next data set the target is T2, CYP2C19 (Homo sapiens, UniProt P33261).
T2 construct: purchased Invitrogen, Madison, WI, USA
T2 sequence (P33261 whole entry): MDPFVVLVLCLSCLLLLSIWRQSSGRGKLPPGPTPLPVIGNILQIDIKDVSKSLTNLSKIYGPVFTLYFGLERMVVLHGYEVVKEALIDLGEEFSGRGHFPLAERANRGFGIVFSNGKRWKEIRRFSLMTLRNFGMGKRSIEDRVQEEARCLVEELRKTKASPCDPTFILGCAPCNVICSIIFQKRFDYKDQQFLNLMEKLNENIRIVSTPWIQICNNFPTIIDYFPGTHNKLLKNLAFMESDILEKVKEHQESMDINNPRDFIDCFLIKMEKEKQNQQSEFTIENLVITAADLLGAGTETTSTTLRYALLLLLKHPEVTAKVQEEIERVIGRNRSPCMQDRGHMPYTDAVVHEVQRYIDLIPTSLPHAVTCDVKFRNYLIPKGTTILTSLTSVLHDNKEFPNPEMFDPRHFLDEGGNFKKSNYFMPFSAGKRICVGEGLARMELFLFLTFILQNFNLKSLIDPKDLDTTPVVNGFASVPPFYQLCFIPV
In words: CYP inhibition assay (Vivid CYP450 screening kit). It counts as in vitro ADME. The conditions noted are these: 10 μM compound. In outline: as §1

The target in another data set is T3, CYP1A2 (Homo sapiens, UniProt P05177).
T3 construct: purchased Invitrogen, Madison, WI, USA
T3 sequence (P05177 2-516 limits assumed): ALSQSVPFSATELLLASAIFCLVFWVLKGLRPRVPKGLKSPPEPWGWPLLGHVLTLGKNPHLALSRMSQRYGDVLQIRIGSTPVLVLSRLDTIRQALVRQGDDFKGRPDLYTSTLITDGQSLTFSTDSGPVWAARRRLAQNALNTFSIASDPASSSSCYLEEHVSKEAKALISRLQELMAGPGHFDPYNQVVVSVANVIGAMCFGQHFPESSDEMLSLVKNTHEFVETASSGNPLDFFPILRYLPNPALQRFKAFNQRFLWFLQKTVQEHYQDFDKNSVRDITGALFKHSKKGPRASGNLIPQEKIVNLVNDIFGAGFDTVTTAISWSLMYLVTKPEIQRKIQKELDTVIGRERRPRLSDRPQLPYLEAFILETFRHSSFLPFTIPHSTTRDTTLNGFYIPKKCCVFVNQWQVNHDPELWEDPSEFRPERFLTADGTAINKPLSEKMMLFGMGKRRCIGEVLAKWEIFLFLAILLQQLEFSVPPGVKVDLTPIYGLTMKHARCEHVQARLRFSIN
Put plainly: CYP inhibition assay (Vivid CYP450 screening kit). The following applies: 10 μM compound. Type of data set: in vitro ADME. In outline:
as §1

The target of the next data set is T4, CYP2D6 (Homo sapiens, UniProt P10635).
T4 construct: purchased Invitrogen, Madison, WI, USA
T4 sequence (P10635 whole entry): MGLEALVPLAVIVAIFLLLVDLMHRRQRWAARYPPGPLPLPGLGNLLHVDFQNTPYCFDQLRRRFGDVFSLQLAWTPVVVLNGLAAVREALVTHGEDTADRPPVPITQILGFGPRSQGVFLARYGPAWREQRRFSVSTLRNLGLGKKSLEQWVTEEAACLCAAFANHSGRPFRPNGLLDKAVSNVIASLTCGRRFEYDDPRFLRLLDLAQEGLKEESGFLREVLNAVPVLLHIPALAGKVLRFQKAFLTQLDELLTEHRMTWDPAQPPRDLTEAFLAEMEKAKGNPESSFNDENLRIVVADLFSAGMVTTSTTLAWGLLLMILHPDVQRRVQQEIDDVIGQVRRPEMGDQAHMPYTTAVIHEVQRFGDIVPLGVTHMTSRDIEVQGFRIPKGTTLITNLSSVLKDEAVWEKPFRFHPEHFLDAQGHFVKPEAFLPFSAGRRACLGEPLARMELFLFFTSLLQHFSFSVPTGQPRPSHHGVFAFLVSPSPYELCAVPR
In words: CYP inhibition assay (Vivid CYP450 screening kit). Type of data set: in vitro ADME. The conditions noted are these: 10 μM compound. The procedure, abridged: as §1

Another data set addresses T5, recombinant human TSPO (Homo sapiens, UniProt P30536).
T5 construct: purchased Origene Technologies, Inc. TP320107
Put plainly: Surface plasmon resonance (SPR) binding affinity. The conditions noted are these: mean ± SD of three measurements. How it is done:
To determine the binding affinities of the selected compounds, the KD values were measured by using Biacore T200 optical biosensor system (GE Healthcare). The recombinant human TSPO (18 kDa, Origene Technologies, Inc., No.: TP320107) was covalently immobilised on a CM5 chip (GE Healthcare) at 25 °C via standard amine-coupling protocols in 10 mM sodium acetate (pH 4.5) at a flow rate of 10 µL/min for 1500s (immobilised protein densities: 5,000–6,000 response unit (RU)). The tested compounds were initially prepared at 10 mM in DMSO, and serially diluted in PBS-P buffer (10 mM NaH2PO4, 150 mM NaCl, pH 7.4) to 1% DMSO. For each tested compound, the kinetic values were measured using a five-point concentration series, 0.001, 0.01, 0.5, 1, and 5 µM. Multiple blank samples of running buffer alone (0 µM of tested compounds) were incorporated in every measurement. The filtered PBS-P buffer containing 1% DMSO was used as a running buffer during the SPR experiments. To measure the kinetic values, a series of different concentrations were injected over the immobilised chip at a flow rate of 50 µL/min (contact time: 120 s, dissociation time: 300 s), followed by the regeneration process at a flow rate of 50 µL/min (contact time: 120 s, stabilisation time: 10 s). The KD value of each compound was calculated by Biacore T200 evaluation software (GE Healthcare) after the standard solvent correction process.

Data set [2] can be described thus: Pharmacokinetic study in SD male rats. The conditions noted are these: 10 mg/kg; for AUC(0-inf) / AUC(0-t) / clearance / Vd / bioavailability / Tmax / half-life / Cmax: Sprague-Dawley, rat, plasma; for bioavailability: oral vs intravenous; for half-life: male. Type of data set: in vivo, rat. How it is done: Each test compound at a dose of 10 mg/kg was administered intravenously or orally to male Sprague-Dawley (SD) rats. Blood samples collected via carotid artery at several time points after administration of each compound were stored at −70 °C until LC-MS/MS analysis. To determine the plasma concentration of each compound, a 0.1 µg/mL of internal standard in 100 µL of MeCN was added to 50 µL of plasma samples. After vortex-shaking and centrifugation at 10,000 rpm for 10 min, 5 µL of the supernatant was analysed by LC-MS/MS [HP1100® HPLC system (Agilent, Santa Clara, CA) combined with API3200® triple-quadrupole mass spectrometer (Applied Biosystems-SCIEX, Concord, Canada)]. The HPLC chromatographic separation was performed on a reversed-phase Xterra® C18 column (Waters Corporation, Milford, MA) using gradient elution consisted of 0.1% formic acid and 0.1% formic acid in 90% MeCN at a flow rate of 0.3 ml/min.

Where [3] appears, read: intravenous, n = 3, read-out: Vss.
[4] abbreviates: n = 3, read-out: F (bioavailability).
Where [5] appears, read: iv, intravenous, n = 3, read-out: Terminal half-life.
[6] abbreviates: po, oral, n = 3, read-out: Terminal half-life.

T5 sequence (P30536 whole entry): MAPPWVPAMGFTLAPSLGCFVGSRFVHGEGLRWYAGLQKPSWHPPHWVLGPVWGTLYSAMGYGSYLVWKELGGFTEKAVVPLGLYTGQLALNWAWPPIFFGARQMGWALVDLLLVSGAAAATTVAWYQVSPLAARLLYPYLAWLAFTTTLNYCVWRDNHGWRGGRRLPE

Turning to `CCOc1ccc(-n2c(SCC(=O)NC3CCN(C)CC3)nc3sc4c(c3c2=O)CCN(C(C)=O)C4)cc1` [Compound 30], the viability (commonly a read-out of living cells in per cent, often relative to untreated cells) at 24 h, 5 µM in data set [1] amounted to 98%. On CYP3A4, the “CYP450 (% remaining Activity at 10 μM) CYP3A4” value is on record as 31.0%. Also, the “CYP450 (% remaining Activity at 10 μM) CYP2C19” value at CYP2C19 is recorded as 107.6%. Also, on CYP1A2, the “CYP450 (% remaining Activity at 10 μM) CYP1A2” value is 119.7%. Further, on CYP2D6, the “CYP450 (% remaining Activity at 10 μM) CYP2D6” value is listed as 118.5%.

With `CCOc1ccc(-n2c(SCC(=O)Nc3ccc(OC)c(OC)c3)nc3sc4c(c3c2=O)CCN(C(C)=O)C4)cc1` [Compound 7], the viability at 24 h, 5 µM in data set [1] came to 95%. Besides, the dissociation constant Kd (commonly the equilibrium constant for the complex coming apart) on recombinant human TSPO turned out to be 630 ± 330 nM. In addition, the “CYP450 (% remaining Activity at 10 μM) CYP3A4” value on CYP3A4 is recorded as 69.9%. Besides, at CYP1A2, the “CYP450 (% remaining Activity at 10 μM) CYP1A2” value worked out at 69.0%. The “CYP450 (% remaining Activity at 10 μM) CYP2D6” value at CYP2D6 was determined as 83.3%. Further, in data set [2] (intravenous, n = 5, Table S3), the total exposure AUC(0-inf) – broadly, the area under the concentration-time curve extrapolated to infinity – was 6030 ng·h/mL; the area under the curve AUC(0-t) – broadly, the area under the concentration-time curve up to a stated or last time point – was 6000 ng·h/mL; the clearance (usually the volume of plasma or blood freed of the substance per unit of time) is 28.9 ± 7.09 mL/min/kg. In addition, in data set [2] (intravenous, n = 5, Table S3, read-out: Vss), the Vd amounted to 1.74 L/kg. For the same compound, the bioavailability (commonly the share of a dose that reaches the circulation, judged against a reference dose that is usually intravenous) in data set [2] (n = 5, Table S3, read-out: F (bioavailability)) amounted to 37.3%. For the same compound, in data set [2] (oral, n = 5, Table S3), the AUC(0-inf) is 2250 ng·h/mL, the area under the curve AUC(0-t) is 1930 ng·h/mL and the Tmax (commonly the time at which the peak concentration occurs) is 2.2 h. For the same compound, the half-life (commonly the time needed for the level to fall by half in the phase considered) in data set [2] (iv, intravenous, n = 5, Table S3, read-out: Terminal half-life) was found to be 62.5 ± 4.71 min. In addition, in data set [2] (po, oral, n = 5, Table S3, read-out: Terminal half-life), the half-life came to 141 ± 62.2 min.

Consider `CCOc1ccc(-n2c(SCC(=O)N(C)Cc3ccccc3)nc3sc4c(c3c2=O)CCN(C)C4)cc1` [Compound 50], for which the viability at 24 h, 5 µM in data set [1] was 95%. Further, at CYP3A4, the “CYP450 (% remaining Activity at 10 μM) CYP3A4” value turned out to be 36.5%. Further, the “CYP450 (% remaining Activity at 10 μM) CYP2C19” value on CYP2C19 turned out to be 47.9%. The “CYP450 (% remaining Activity at 10 μM) CYP1A2” value on CYP1A2 was 97.3%. Moreover, the “CYP450 (% remaining Activity at 10 μM) CYP2D6” value on CYP2D6 is 30.0%.

For the compound `CCOc1ccc(-n2c(SCC(=O)NCc3ccccc3)nc3sc4c(c3c2=O)CCN(C(C)=O)C4)cc1` [Compound 31], the viability at 24 h, 5 µM in data set [1] came to 109%. Besides, on recombinant human TSPO, the Kd came to 1250 ± 400 nM. For the same compound, the “CYP450 (% remaining Activity at 10 μM) CYP3A4” value on CYP3A4 is given as 18.3%. For the same compound, the “CYP450 (% remaining Activity at 10 μM) CYP2C19” value at CYP2C19 was 70.0%. For the same compound, the “CYP450 (% remaining Activity at 10 μM) CYP1A2” value on CYP1A2 worked out at 143.1%. In addition, on CYP2D6, the “CYP450 (% remaining Activity at 10 μM) CYP2D6” value was found to be 88.1%. Further, the exposure AUC(0-t) is 4560 ng·h/mL in data set [2] (intravenous, n = 3) and 194 ng·h/mL in data set [2] (oral, n = 3). Besides, in data set [2] (intravenous, n = 3), the clearance was found to be 32.5 ± 10.1 mL/min/kg. For the same compound, the AUC(0-inf) in data set [2] (intravenous, n = 3, mean ± SD) was 5510 ng·h/mL; in data set [2] (oral, n = 3, mean ± SD), 443 ng·h/mL. Moreover, the Vd in data set [2] (setting [3]) came to 7.74 ± 1.11 L/kg. For the same compound, in data set [2] (setting [4]), the bioavailability came to 8%. The peak level in data set [2] (oral, n = 3) (Cmax) was 40 ± 20 ng/mL. Moreover, the Tmax in data set [2] (oral, n = 3, range in brackets) was 0.8 h. The half-life in data set [2] (setting [5]) is 174 ± 32.4 min; in data set [2] (setting [6]), 448 ± 27.6 min.

For the compound `CCOc1ccc(-n2c(SCC(=O)NCc3ccccc3)nc3sc4c(c3c2=O)CCN(C)C4)cc1` [Compound 49], the viability at 24 h, 5 µM in data set [1] was 99%. Also, on CYP3A4, the “CYP450 (% remaining Activity at 10 μM) CYP3A4” value is 28.1%. For the same compound, the “CYP450 (% remaining Activity at 10 μM) CYP2C19” value at CYP2C19 turned out to be 90.0%. Also, on CYP1A2, the “CYP450 (% remaining Activity at 10 μM) CYP1A2” value is reported as 95.3%. Moreover, the “CYP450 (% remaining Activity at 10 μM) CYP2D6” value at CYP2D6 is recorded as 43.1%.

For `CCOc1ccc(-n2c(SCC(=O)N3CCN(c4ccccc4)CC3)nc3sc4c(c3c2=O)CCN(C(C)=O)C4)cc1` [Compound 44], the viability at 24 h, 5 µM in data set [1] amounted to 97%. Further, the Kd on recombinant human TSPO came to 2740 ± 660 nM. At CYP3A4, the “CYP450 (% remaining Activity at 10 μM) CYP3A4” value amounted to 72.2%. In addition, the “CYP450 (% remaining Activity at 10 μM) CYP2C19” value on CYP2C19 was determined as 28.3%. The “CYP450 (% remaining Activity at 10 μM) CYP1A2” value at CYP1A2 stood at 92.0%. For the same compound, the “CYP450 (% remaining Activity at 10 μM) CYP2D6” value on CYP2D6 came to 117.3%. In data set [2] (intravenous, n = 3), this compound showed an AUC(0-t) of 17600 ng·h/mL, a clearance of 9.43 ± 1.05 mL/min/kg and a Terminal half-life of 80.17 ± 9.34 min. The AUC(0-inf) in data set [2] (intravenous, n = 3, mean ± SD) was 17800 ng·h/mL. The Vd in data set [2] (setting [3]) was 0.785 ± 0.0396 L/kg. The bioavailability in data set [2] (setting [4]) worked out at 78.4%. Also, in data set [2] (oral, n = 3), the AUC(0-t) is 8120 ng·h/mL and the Cmax – broadly, the peak of the concentration-time curve – turned out to be 2110 ± 910 ng/mL. Besides, the area under the curve AUC(0-inf) in data set [2] (oral, n = 3, mean ± SD) was 10200 ng·h/mL. In data set [2] (oral, n = 3, range in brackets), the time to peak (Tmax) turned out to be 1.2 h. Moreover, the half-life in data set [2] (setting [5]) is 80 min. Besides, in data set [2] (setting [6]), the half-life was 199 ± 135 min.
